Tests used:
Assay type in all cases: cell-based
[1] = system: K-562; test: Inhibition of cell growth by colorimetric SRB assay, K-562; conditions: Homo sapiens, K562, K-562, 48 hours exposure; for CC50: cell killing, read-out: LC50 (the source's name); for IC (total growth inhibition): read-out: TGI
From the text: (§1) The finality of these assays is to interrupt the growth of a “in vitro” tumor cell culture by means a continued exhibition of the cells to the sample to be testing.
(§2) Inhibition of Cell Growth by Colorimetric Assay.
(§3) A colorimetric type of assay, using sulforhodamine B (SRB) reaction has been adapted for a quantitative measurement of cell growth and viability (following the technique described by P. A. Skehan, et al., J. Natl. CancerInst. 1990, 82, 1107-1112).
(§4) This form of assay employs 96 well cell culture microplates of 9 mm diameter (T. Mosmann et al., J. of Immuological Methods 1983, 65, 55-63; G. T. Faircloth et al., J. of Tissue and Culture Methods 1988, 11, 201-205). Most of the cell lines are obtained from American Type Culture Collection (ATCC) derived from different human cancer types.
(§5) Cells are maintained in RPMI 1640 10% FBS, supplemented with 0.1 g/L penicillin and 0.1 g/L streptomycin sulfate and then incubated at 37° C., 5% CO2 and 98% humidity. For the experiments, cells were harvested from subconfluent cultures using trypsin and resuspended in fresh medium before plating.
(§6) Cells are seeded in 96 well microtiter plates, at 5×10^3 cells per well in aliquots of 195 μL medium, and they are allowed to attach to the plate surface by growing in drug free medium for 18 hours. Afterward, samples are added in aliquots of 5 μL in a ranging from 10 to 10^−8 μg/mL, dissolved in DMSO/EtOH/PBS (0.5:0.5:99). After 48 hours exposure, the antitumor effect are measured by the SRB methodology: cells are fixed by adding 50 μL of cold 50% (wt/vol) trichloroacetic acid (TCA) and incubated for 60 minutes at 4° C. Plates are washed with deionizer water and dried. One hundred μl of SRB solution (0.4% wt/vol in 1% acetic acid) is added to each microliter well and incubated for 10 minutes at room temperature. Unbound SRB is removed by washing with 1% acetic acid. Plates are air dried and bound stain is solubilized with Tris buffer. Optical densities are read on a automated spectrophotometric plate reader at a single wavelength of 490 nm.
(§7) The values for mean +/−SD of data from triplicate wells are calculated. Some parameters for cellular responses can be calculated: GI=growth inhibition, TGI=total growth inhibition (cytostatic effect) and LC=cell killing (cytotoxic effect).

[2] = system: IGROV-ET; test: Inhibition of cell growth by colorimetric SRB assay, IGROV-ET; conditions: Homo sapiens, IGROV-ET, 48 hours exposure; for CC50: cell killing, read-out: LC50 (the source's name); for IC (total growth inhibition): read-out: TGI
From the text: as §1, §2, §3, §4, §5, §6, §7

[3] = system: PANC-1; test: Inhibition of cell growth by colorimetric SRB assay, PANC-1; conditions: Homo sapiens, PANC-1, 48 hours exposure; for CC50: cell killing, read-out: LC50 (the source's name); for IC (total growth inhibition): read-out: TGI
From the text: as §1, §2, §3, §4, §5, §6, §7

[4] = system: LoVo; test: Inhibition of cell growth by colorimetric SRB assay, LOVO; conditions: Homo sapiens, LOVO, 48 hours exposure; for LC50: cell killing, read-out: LC50; for IC (total growth inhibition): read-out: TGI
From the text: as §1, §2, §3, §4, §5, §6, §7

[5] = system: SK-BR-3; test: Inhibition of cell growth by colorimetric SRB assay, SK-BR-3; conditions: SK-BR-3, 48 hours exposure; for GI50 / CC50: Homo sapiens; for CC50: cell killing, read-out: LC50 (the source's name); for TGI: total growth inhibition
From the text: as §1, §2, §3, §4, §5, §6, §7

[6] = system: IGROV; test: Inhibition of cell growth by colorimetric SRB assay, IGROV; conditions: Homo sapiens, 48 hours exposure; for CC50: cell killing, read-out: LC50 (the source's name); for IC (total growth inhibition): read-out: TGI
From the text: as §1, §2, §3, §4, §5, §6, §7

[7] = system: SK-MEL-28; test: Inhibition of cell growth by colorimetric SRB assay, MEL-28; conditions: Homo sapiens, SK-MEL-28, MEL-28, 48 hours exposure; for CC50: cell killing, read-out: LC50 (the source's name); for IC (total growth inhibition): read-out: TGI
From the text: as §1, §2, §3, §4, §5, §6, §7

[8] = system: HeLa-APL; test: Inhibition of cell growth by colorimetric SRB assay, HELA-APL; conditions: Homo sapiens, HELA-APL, 48 hours exposure; for CC50: cell killing, read-out: LC50 (the source's name); for GI50: read-out: GI50; for IC (total growth inhibition): read-out: TGI
From the text: as §1, §2, §3, §4, §5, §6, §7

[9] = system: LNCaP; test: Inhibition of cell growth by colorimetric SRB assay, LN-caP; conditions: Homo sapiens, LN-caP, 48 hours exposure; for CC50: cell killing, read-out: LC50 (the source's name); for IC (total growth inhibition): read-out: TGI
From the text: as §1, §2, §3, §4, §5, §6, §7

[10] = system: DU-145; test: Inhibition of cell growth by colorimetric SRB assay, DU-145; conditions: Homo sapiens, DU-145, 48 hours exposure; for CC50: cell killing, read-out: LC50 (the source's name); for IC (total growth inhibition): read-out: TGI
From the text: as §1, §2, §3, §4, §5, §6, §7

[11] = system: A-549; test: Inhibition of cell growth by colorimetric SRB assay, A-549; conditions: Homo sapiens, A549, A-549, 48 hours exposure; for CC50: cell killing, read-out: LC50 (the source's name); for IC (total growth inhibition): read-out: TGI
From the text: as §1, §2, §3, §4, §5, §6, §7

[12] = system: HeLa; test: Inhibition of cell growth by colorimetric SRB assay, HELA; conditions: Homo sapiens, HELA, 48 hours exposure; for CC50: cell killing, read-out: LC50 (the source's name); for IC (total growth inhibition): read-out: TGI
From the text: as §1, §2, §3, §4, §5, §6, §7

[13] = system: HT-29; test: Inhibition of cell growth by colorimetric SRB assay, HT-29; conditions: Homo sapiens, HT-29, 48 hours exposure; for CC50: cell killing, read-out: LC50 (the source's name); for IC (total growth inhibition): read-out: TGI
From the text: as §1, §2, §3, §4, §5, §6, §7

[14] = system: LoVo-Dox; test: Inhibition of cell growth by colorimetric SRB assay, LOVO-DOX; conditions: Homo sapiens, LOVO-DOX, 48 hours exposure; for LC50 (concentration for 50% cell killing): read-out: LC50; for IC (total growth inhibition): read-out: TGI
From the text: as §1, §2, §3, §4, §5, §6, §7

Structure (SMILES): C/C=C\[C@H](C)[C@H]1O[C@@]1(C)[C@@H](O)[C@@H](CO)C(=O)[C@H](CO)[C@@H](O)CC(=O)CC [3a + 4a]
- GI50 [1]: 0.521 µM
- CC50 [1]: 8.4 µM
- IC (total growth inhibition) [1]: 1.46 µM
- GI50 [2]: 0.1 µM
- CC50 [2]: 26.8 µM
- IC (total growth inhibition) [2]: 1.07 µM
- GI50 [3]: 0.0897 µM
- CC50 [3]: 26.8 µM
- IC (total growth inhibition) [3]: 2.95 µM
- GI50 [4]: 0.0822 µM
- LC50 [4]: 17.7 µM
- IC (total growth inhibition) [4]: 1.35 µM
- GI50 [5]: 0.0303 µM
- CC50 [5]: 5.34 µM
- TGI [5]: 4.75E−07 Molar
- GI50 [6]: 0.073 µM
- CC50 [6]: 3.92 µM
- IC (total growth inhibition) [6]: 0.376 µM
- GI50 [7]: 0.0754 µM
- CC50 [7]: 12 µM
- IC (total growth inhibition) [7]: 0.832 µM
- CC50 [8]: 14.7 µM
- GI50 [8]: 0.0733 µM
- IC (total growth inhibition) [8]: 0.983 µM
- GI50 [9]: 0.0819 µM
- CC50 [9]: 5.32 µM
- IC (total growth inhibition) [9]: 0.553 µM
- GI50 [10]: 0.0631 µM
- CC50 [10]: 2.03 µM
- IC (total growth inhibition) [10]: 0.403 µM
- GI50 [11]: 0.144 µM
- CC50 [11]: 15.6 µM
- IC (total growth inhibition) [11]: 2.59 µM
- GI50 [12]: 0.0728 µM
- CC50 [12]: 7.14 µM
- IC (total growth inhibition) [12]: 0.55 µM
- GI50 [13]: 0.0601 µM
- CC50 [13]: 26.8 µM
- IC (total growth inhibition) [13]: 1.18 µM
- GI50 [14]: 0.152 µM
- LC50 (concentration for 50% cell killing) [14]: 26.8 µM
- IC (total growth inhibition) [14]: 1.36 µM

Structure (SMILES): C/C=C\[C@H](C)[C@H]1OC1(C)[C@@H](O)[C@@H](CO)C(=O)[C@H](CO)[C@H](O)CC(=O)CC (stereo partly drawn) [3b + 4b]
- GI50 [1]: 14.2 µM
- CC50 [1]: 23.3 µM
- IC (total growth inhibition) [1]: 18.2 µM
- GI50 [2]: 6.55 µM
- CC50 [2]: 26.8 µM
- IC (total growth inhibition) [2]: 26.8 µM
- GI50 [3]: 26.8 µM
- CC50 [3]: 26.8 µM
- IC (total growth inhibition) [3]: 26.8 µM
- GI50 [4]: 4.81 µM
- LC50 [4]: 26.8 µM
- IC (total growth inhibition) [4]: 12.6 µM
- GI50 [5]: 5.07 µM
- CC50 [5]: 23.3 µM
- TGI [5]: 1.09E−05 Molar
- GI50 [6]: 5.96 µM
- CC50 [6]: 26.8 µM
- IC (total growth inhibition) [6]: 26.8 µM
- GI50 [7]: 5.53 µM
- CC50 [7]: 26.8 µM
- IC (total growth inhibition) [7]: 26.8 µM
- CC50 [8]: 26.8 µM
- GI50 [8]: 5.18 µM
- IC (total growth inhibition) [8]: 26.8 µM
- GI50 [9]: 9.29 µM
- CC50 [9]: 26.8 µM
- IC (total growth inhibition) [9]: 26.8 µM
- GI50 [10]: 6.52 µM
- CC50 [10]: 26.8 µM
- IC (total growth inhibition) [10]: 26.8 µM
- GI50 [11]: 26.8 µM
- CC50 [11]: 26.8 µM
- IC (total growth inhibition) [11]: 26.8 µM
- GI50 [12]: 8.73 µM
- CC50 [12]: 26.8 µM
- IC (total growth inhibition) [12]: 26.8 µM
- GI50 [13]: 22.1 µM
- CC50 [13]: 26.8 µM
- IC (total growth inhibition) [13]: 26.8 µM
- GI50 [14]: 9.34 µM
- LC50 (concentration for 50% cell killing) [14]: 26.8 µM
- IC (total growth inhibition) [14]: 26.8 µM
